Consider eleven compounds from ChEMBL document CHEMBL1132047, “Nonpeptide oxytocin antagonists: analogs of L-371,257 with improved potency” (Bioorg Med Chem Lett, 1999).

A short description of data set [1]: Compound was evaluated in vivo in rat for the plasma half-life at a iv dose of 3 mg/kg and oral dose of 10 mg/kg and experiment by using concentration vs time curve. It counts as ADME, organism-based.
For data set [2], the system named is Rattus norvegicus. In words: Compound tested in vivo for antagonist potency against oxytocin (OT)-induced in rats by iv administration. It counts as functional.
Data set [3] has as its system Rattus norvegicus. Nature of the data set: Compound tested in vivo for antagonist potency against oxytocin (OT)-induced in rats by id administration. Format: functional.
A short description of data set [4]: Oral bioavailability in rat (dose 20 mg/kg). Conditions: in vivo. Format: ADME, organism-based.
Data set [5] addresses T1, Oxytocin receptor (Homo sapiens, UniProt P30559).
T1 sequence (P30559 whole entry): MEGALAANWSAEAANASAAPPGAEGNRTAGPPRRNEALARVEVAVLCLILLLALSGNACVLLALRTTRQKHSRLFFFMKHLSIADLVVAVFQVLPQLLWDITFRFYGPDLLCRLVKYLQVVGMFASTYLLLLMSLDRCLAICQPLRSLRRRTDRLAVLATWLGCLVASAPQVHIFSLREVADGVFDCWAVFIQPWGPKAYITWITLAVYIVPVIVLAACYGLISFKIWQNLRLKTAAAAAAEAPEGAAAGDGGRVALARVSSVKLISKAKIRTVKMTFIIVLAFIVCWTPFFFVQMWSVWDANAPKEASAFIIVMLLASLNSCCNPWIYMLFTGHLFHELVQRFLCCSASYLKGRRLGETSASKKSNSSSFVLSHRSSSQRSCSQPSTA
Nature of the data set: Binding affinity for human oxytocin receptor.

The target of data set [6] is T2, Oxytocin receptor (Rattus norvegicus, UniProt P70536).
T2 sequence (P70536 whole entry): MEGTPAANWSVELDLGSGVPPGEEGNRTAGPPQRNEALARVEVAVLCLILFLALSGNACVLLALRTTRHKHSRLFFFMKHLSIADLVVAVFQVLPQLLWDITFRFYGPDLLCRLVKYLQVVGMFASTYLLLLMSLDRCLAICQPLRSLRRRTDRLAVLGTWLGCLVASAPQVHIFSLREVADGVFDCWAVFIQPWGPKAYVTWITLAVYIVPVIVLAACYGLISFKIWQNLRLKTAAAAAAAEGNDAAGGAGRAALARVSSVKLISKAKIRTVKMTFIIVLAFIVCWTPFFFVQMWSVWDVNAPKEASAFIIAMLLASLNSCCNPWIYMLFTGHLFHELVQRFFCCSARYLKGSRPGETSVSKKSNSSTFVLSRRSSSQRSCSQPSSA
In words: Binding affinity for rat uterine oxytocin receptor (rOTr).

Data set [7] addresses Vasopressin V2 receptor (Homo sapiens, UniProt P30518). Nature of the data set: Binding affinity towards cloned human Vasopressin V2 receptor by using functional assay.
In data set [8] the target is Vasopressin V1a receptor (Rattus norvegicus, UniProt P30560). In words: Binding affinity towards rat liver Vasopressin V1a receptor by using functional assay.
Data set [9] can be described thus: Compound was evaluated for pharmacokinetic property in rats after an oral dose of 10 mg/kg and the value was reported as oral bioavailability (F). It counts as ADME, organism-based. The settings on record: rat, in vivo.
The target in data set [10] is Vasopressin V1a receptor (Homo sapiens, UniProt P37288). In words: Binding affinity towards human Vasopressin V1a receptor by using functional assay.
Data set [11] concerns the target Vasopressin V2 receptor (Rattus norvegicus, UniProt Q00788). Nature of the data set: Binding affinity towards rat kidney Vasopressin V2 receptor by using functional assay.
The test system of data set [12] is Rattus norvegicus. Nature of the data set: Compound tested in vivo for antagonist potency against oxytocin (OT)-induced contractions in rat uterus by iv administration. Format: functional.
A short description of data set [13]: Compound was evaluated in vivo in rat for the plasma half-life at a oral dose of 20 mg/kg experiment by using concentration vs time curve. On the set-up: dose 20 mg/kg, route oral. It counts as ADME, organism-based.

Structures are written as SMILES. Bounds are passed on as bounds.

Chain of Vasopressin V1a receptor (Rattus norvegicus, UniProt P30560) (P30560 whole entry): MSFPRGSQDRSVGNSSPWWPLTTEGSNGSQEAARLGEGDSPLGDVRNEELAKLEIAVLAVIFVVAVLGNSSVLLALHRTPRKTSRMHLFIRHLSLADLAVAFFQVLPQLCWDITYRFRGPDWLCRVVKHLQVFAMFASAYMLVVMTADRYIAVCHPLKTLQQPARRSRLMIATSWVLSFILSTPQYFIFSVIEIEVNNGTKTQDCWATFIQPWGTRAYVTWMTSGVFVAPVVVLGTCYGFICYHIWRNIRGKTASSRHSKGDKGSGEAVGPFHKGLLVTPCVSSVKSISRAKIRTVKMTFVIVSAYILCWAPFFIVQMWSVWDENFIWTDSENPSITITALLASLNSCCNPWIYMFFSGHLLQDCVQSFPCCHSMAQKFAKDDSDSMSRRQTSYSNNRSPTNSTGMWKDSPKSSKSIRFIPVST
Chain of Vasopressin V2 receptor (Rattus norvegicus, UniProt Q00788) (Q00788 whole entry): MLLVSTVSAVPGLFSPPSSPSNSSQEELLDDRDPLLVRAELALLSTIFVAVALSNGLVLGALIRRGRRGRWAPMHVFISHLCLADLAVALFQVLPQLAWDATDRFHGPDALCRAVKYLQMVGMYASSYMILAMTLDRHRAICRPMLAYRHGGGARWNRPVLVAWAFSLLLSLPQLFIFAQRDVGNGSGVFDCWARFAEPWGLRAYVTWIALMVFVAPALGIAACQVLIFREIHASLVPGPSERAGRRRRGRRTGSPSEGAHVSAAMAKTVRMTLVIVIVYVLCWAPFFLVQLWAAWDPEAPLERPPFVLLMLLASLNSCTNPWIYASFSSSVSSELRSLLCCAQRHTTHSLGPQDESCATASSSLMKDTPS
Chain of Vasopressin V1a receptor (Homo sapiens, UniProt P37288) (P37288 whole entry): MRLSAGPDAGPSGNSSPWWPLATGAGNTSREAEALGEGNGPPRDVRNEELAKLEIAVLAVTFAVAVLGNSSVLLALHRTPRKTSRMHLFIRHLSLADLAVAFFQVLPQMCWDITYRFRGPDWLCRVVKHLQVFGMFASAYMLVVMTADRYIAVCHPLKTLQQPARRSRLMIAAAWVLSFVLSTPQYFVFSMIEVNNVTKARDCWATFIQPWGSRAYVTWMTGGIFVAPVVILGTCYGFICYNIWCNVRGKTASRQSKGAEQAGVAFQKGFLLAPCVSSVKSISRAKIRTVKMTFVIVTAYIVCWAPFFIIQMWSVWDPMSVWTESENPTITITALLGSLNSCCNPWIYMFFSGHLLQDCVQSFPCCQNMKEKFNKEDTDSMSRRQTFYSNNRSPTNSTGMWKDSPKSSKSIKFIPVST
Chain of Vasopressin V2 receptor (Homo sapiens, UniProt P30518) (P30518 whole entry): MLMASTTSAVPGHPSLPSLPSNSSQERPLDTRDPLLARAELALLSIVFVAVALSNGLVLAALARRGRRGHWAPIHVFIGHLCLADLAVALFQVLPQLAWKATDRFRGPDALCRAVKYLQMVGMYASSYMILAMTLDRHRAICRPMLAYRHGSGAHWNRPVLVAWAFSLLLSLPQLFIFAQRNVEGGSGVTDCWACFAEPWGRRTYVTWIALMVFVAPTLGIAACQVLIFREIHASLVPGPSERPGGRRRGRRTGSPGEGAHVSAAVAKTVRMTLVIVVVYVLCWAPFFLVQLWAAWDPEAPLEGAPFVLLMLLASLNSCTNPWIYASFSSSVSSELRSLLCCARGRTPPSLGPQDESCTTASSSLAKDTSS

One may read the half-life as how long it takes for the measured level to halve. Higher therefore signals slow decline. As a reminder, the bioavailability is the share of a dose that reaches the circulation, judged against a reference dose that is usually intravenous. The term Ki denotes the dissociation constant of the complex between target and ligand, obtained from inhibition or displacement. Read a high Ki as weaker binding. Take `O=C(Cc1ccc(OC2CCN(CC3CC3)CC2)cc1OCC(F)(F)F)N1CCC(N2C(=O)OCc3ccccc32)CC1`: the half-life in [1] is 1.7 h. The AD50 came to 0.69 mg/kg in [2] and 22 mg/kg in data set [3]. This compound registered a bioavailability in data set [4] of 45%. In addition, the Ki in data set [5] turned out to be 1 nM; in data set [6], 1.2 nM.

In the case of `CC(=O)N1CCC(Oc2ccc(CC(=O)N3CCC(N4C(=O)OCc5ccccc54)CC3)c(OCC(F)(F)F)c2)CC1`, the Ki was found to be 130 nM in [7]; 2 nM in data set [8]; 740 nM in data set [10]; 150 nM in data set [11]; 1.4 nM in [5]; 0.71 nM in data set [6]. Besides, the half-life in data set [1] was 0.27 h. The bioavailability in data set [9] and in data set [4] was 19% in each case. For the same compound, the AD50 in data set [2] is 0.06 mg/kg; in data set [3], 0.64 mg/kg.

In the case of `CC(=O)N1CCC(Oc2ccc(CC(=O)N3CCC(N4C(=O)OCc5ccccc54)CC3)c(OC(F)(F)F)c2)CC1`, the AD50 in data set [2] turned out to be 0.27 mg/kg. For the same compound, the Ki is 2.4 nM in data set [5] and 2.8 nM in data set [6].

`COc1cc(OC2CCN(C(C)=O)CC2)ccc1C(=O)N1CCC(N2C(=O)OCc3ccccc32)CC1`: the AD50 in [12] was determined as 0.55 mg/kg; in data set [3], 2.5 mg/kg. Moreover, the half-life in data set [13] is 0.5 h.

Consider `O=C(Cc1ccccc1OCC(F)(F)F)N1CCC(N2C(=O)OCc3ccccc32)CC1`, for which the figures for the AD50 in data set [2] and in data set [3] were 1 mg/kg and more than 10 mg/kg, respectively. The Ki stood at 4.5 nM in data set [5] and 6 nM in data set [6].

Regarding `O=C(Cc1ccc(N2CCOCC2)cc1OCC(F)(F)F)N1CCC(N2C(=O)OCc3ccccc32)CC1`, the AD50 in data set [2] amounted to 0.077 mg/kg; in [3], 0.97 mg/kg. Also, the Ki was 0.86 nM in [5] and 0.6 nM in data set [6].

For `CC(=O)N1CCC(Oc2ccc(CC(=O)N3CCC(N4C(=O)OCc5ccccc54)CC3)cc2)CC1`, the Ki in [5] came out at 390 nM; in [6], 1600 nM.

For the compound `COc1ccc(CCC(=O)N2CCC(N3C(=O)OCc4ccccc43)CC2)c(OC)c1`, the values for the Ki in data set [5] and in [6] were 240 nM and 520 nM, respectively.

Take `COc1ccc(CC(=O)N2CCC(N3C(=O)OCc4ccccc43)CC2)c(OC)c1`: the Ki in data set [5] came to 33 nM; in [6], 37 nM.

Compound `O=C(Cc1ccc(OCCN2CCOCC2)cc1OCC(F)(F)F)N1CCC(N2C(=O)OCc3ccccc32)CC1` gave a half-life in data set [1] of 2.8 h. For the same compound, in [2], the AD50 amounted to 0.13 mg/kg. For the same compound, the bioavailability in data set [4] amounted to 31%. In addition, the Ki in data set [5] stood at 1.4 nM; in [6], 2.1 nM.

As for `COc1cc(OC2CCN(C(C)=O)CC2)ccc1CC(=O)N1CCC(N2C(=O)OCc3ccccc32)CC1`, the Ki in data set [5] was 9.8 nM; in data set [6] it was 36 nM.
